Source: US10183015B2, “Heterocyclic compounds and methods of use” (Medivation Technologies LLC, priority 2015, dated 2019)
Several values for one entry are separate records, joined by “and”; a condition that tells them apart may be missing. Equal values may be shown once.

Legend:
IL-6 = assay: Short-term Paigen-diet NASH mouse model: liver IL-6 levels; format: in vivo
Description: To investigate whether Compound #37 prevents the development of pathology associated with NASH and steatosis in an acute exploratory disease model, a study was conducted using a diet-induced acute liver steatosis model in mice. […]
After acclimation, 8-week old male C57Bl/6J mice (Charles River) weighing about 25 g were randomized in 4 groups according their body weight and treated once daily around noon by oral gavage with vehicle, or Compound #37 at various for 21 days as follows: Group 1: vehicle-20% (2-hydroxypropyl)-β-cyclodextrin (HP-β-CD) (n=10); Group 2: Compound #37, 5 mg/kg (n=10) Group 3: Compound #37, 20 mg/kg (n=10) Group 4: Compound #37, 40 mg/kg (n=10). During the treatment period, body weight and food intake (measured over 24h) were measured 3 times per week and once a week, respectively. During the acclimation, all mice were fed a standard diet (Special Diets Services RM1 (E), product no. 801492) and tap water ad libitum. After the acclimation period, mice were fed until the end of the experiment with a 60% high fat Paigen diet (60 kcal % fat, 1.25% cholesterol, and 0.5% cholate; D11061901, Research Diet) and tap water ad libitum.
The 60% high fat Paigen diet induced accumulation of liver lipids, inflammation, oxidative stress, and then fibrosis.

[1] = system: diet-induced NASH obese insulin resistant mice; assay: DIN mouse model: liver Sirius Red staining (% labeling, collagen deposition); format: in vivo; conditions: for Sirius red labeling: liver
Description: (§1) Male C57Bl/6J mice (8 weeks old) were housed in enriched ventilated cages (31×12.5×12.7 cm) throughout the experimental phase. Animals' cages litters were changed at least once a week. Animal were housed 5 per cage on inverted 12-hour light cycle (at 09:00 am lights off), 22±2° C. and 55±10% relative humidity. The acclimation period was 20 days. During the acclimation period, all mice were fed a standard diet (RM1 (E) 801492, SDS) and tap water ad libitum. After the acclimation period, mice were fed with the DIN diet (60% fat, cholesterol enriched) and fructose-enriched tap water ad libitum until the end of the experiment.
(§2) At 6 weeks of diet, mice were 4-hour fasted (09:00 am to 1:00 pm) and blood (150 μl/EDTA) was collected at 01:00 pm by retro-orbital bleeding under isoflurane anesthesia. Mice were then allocated in 2 homogenous groups (n=12/group) according to their plasma levels of ALT (average levels: 685U/L), AST (average levels: 627U/L) and HOMA-IR index (average value: 4.7), into 2 homogenous groups (see values at day 0 in Tables 15A and 15B ALT/AST and Tables 16A and 16B for HOMA-IR). Mice were then treated once daily by oral gavage with vehicle (Group 1) or Compound #37 at 20 mg/kg (Group 2) for 70 days.
Slides having a single hepatic lobe section stained with H&E and […] were digitized using a Nanozoomer from Hamamatsu. Sections were evaluated with knowledge of groups. In agreement with the unchanged hepatic triglycerides levels, oil red O staining and % labeling was not changed with Compound #37. A substantial reduction in Sirius Red labeling was also observed, leading to a 61% reduction (p<0.001 vs. vehicle) in % labeling.
To investigate whether Compound #37 improves pre-existing steatosis/NASH pathology, a study was conducted using a 16-week diet-induced NASH mouse model. In this model, mice develop steatosis that progresses with inflammation and fibrosis that mimic many of the observed pathologies in human nonalcoholic fatty liver disease (NAFLD) and NASH (Hebbard & George, 2010). […]

SREBP1C = assay: DIN mouse model: hepatic SREBP1C gene expression; format: in vivo; design: key to 2^DDct: expression relative to vehicle group, normalized to 18S; conditions: 20 mg/kg group; for 18S: Gene Expression: SREBP1C table, 18S reference; for 2^DDct / DDct / Dct / SREBP1C: Gene Expression: SREBP1C
Description: Gene expression analysis. Hepatic expression levels of genes involved in lipid metabolism (FAS, SREBP1, ACC1, SCD1), cholesterol metabolism (HMG-CoAR, LDLR), SREBP proteolysis (SCAP, INSIG1), ER stress (PERK), oxidative stress (NRF2), inflammation (MCP-1), and fibrosis (collagen 1α1) were quantified by RTqPCR. Expression level was normalized to 18S gene expression and relative expression to vehicle group was calculated with the […] method.
as §1, §2
Hepatic expression levels of genes involved in lipid (FAS, SREBP1, ACC1, SCD1), cholesterol metabolism (HMG-CoAR, LDLR), in SREBP proteolysis (SCAP, INSIG1), in ER stress (PERK), oxidative stress (NRF2), and inflammation (MCP-1) were not changed. However, expression of collagen 1α1, involved in liver fibrosis, was reduced by 66% in mice treated with Compound #37 (p<0.05 vs. vehicle).

ob/ob mice = assay: ob/ob mice: liver Oil Red O staining; format: in vivo, mouse; conditions: 8 weeks
Description: Groups of mice were either untreated (group 1) or treated for 8 weeks with vehicle (group 2), or with Compound #37 at 5 mg/kg (group 3), 10 mg/kg (group 4), or 20 mg/kg (group 5). Treatment was daily by oral gavage in vehicle (20% HPβCD). Values are presented as mean±standard error of the mean (sem). A t test was performed to compare the untreated group and the vehicle group. Then Compound #37-treated groups were compared to the vehicle-treated group with a 1-way ANOVA+Dunnett's post-test. […] For each test, a p<0.05 was considered significant. Of note, animal #39, group 1 was excluded from the statistical analysis, due to low values for all parameters measured. Some other values were considered as out-liners and excluded from the statistical analysis when the value was far below the mean minus 2 SD. Excluded values are marked with an asterisk in Tables 21-23.

## CC(C)Cc1cc(-c2nc(-c3ccc(NS(=O)(=O)C(F)(F)F)cc3Cl)cs2)ccn1 [Compound 37, N-(3-chloro-4-(2-(2-isobutylpyridin-4-yl)thiazol-4-yl)phenyl)-1,1,1-trifluoromethanesulfonamide]
IL-6; 5 mg/kg, 21 days, group mean
  IL-6 (pg/mg tissue): 1012 pg/mg tissue
IL-6; 5 mg/kg, 21 days, individual animals
  IL-6 (pg/mg tissue): 1444 pg/mg tissue and 845 pg/mg tissue and 1107 pg/mg tissue and 650 pg/mg tissue and 1305 pg/mg tissue and 957 pg/mg tissue and 770 pg/mg tissue and 1296 pg/mg tissue and 883 pg/mg tissue and 863 pg/mg tissue
IL-6; 20 mg/kg, 21 days, group mean
  IL-6 (pg/mg tissue): 817 pg/mg tissue
IL-6; 20 mg/kg, 21 days, individual animals
  IL-6 (pg/mg tissue): 904 pg/mg tissue and 737 pg/mg tissue and 760 pg/mg tissue and 705 pg/mg tissue and 970 pg/mg tissue and 826 pg/mg tissue
IL-6; 40 mg/kg, 9 days, group mean
  IL-6 (pg/mg tissue): 669 pg/mg tissue
IL-6; 40 mg/kg, 9 days, individual animals
  IL-6 (pg/mg tissue): 1005 pg/mg tissue and 569 pg/mg tissue and 535 pg/mg tissue and 566 pg/mg tissue
[1]; 20 mg/kg, 70 days, p<0.001 vs. vehicle
  Sirius Red % labeling reduction: 61%
[1]; 20 mg/kg group, mean, n 11
  Sirius red labeling: 0.7%
[1]; 20 mg/kg, individual animals
  Sirius red labeling: 0.5% and 0.8% (4×) and 0.6% (2×) and 1.0% and 0.9% and 0.7% (2×)
SREBP1C; individual animal, 20 mg/kg
  18S: 12.55 (2×) and 12.84 and 12.43 and 12.35 (2×) and 12.59 and 11.73 and 12.51 and 11.5 and 11.55
SREBP1C; mean, n 11
  18S: 12.3
  2^DDct: 0.96
  DDct: 0.28
  Dct: 13.6
  SREBP1C: 25.9
SREBP1C; individual animal
  2^DDct: 1.30 and 1.21 and 0.41 and 0.49 and 0.69 and 1.10 and 0.99 and 1.37 and 0.36 and 0.47 and 2.13
  DDct: −0.38 and −0.27 and 1.30 and 1.04 and 0.54 and −0.14 and 0.01 and −0.45 and 1.46 and 1.10 and −1.09
  Dct: 12.98 and 13.09 and 14.66 and 14.4 and 13.9 and 13.22 and 13.37 and 12.91 and 14.82 and 14.46 and 12.27
  SREBP1C: 25.53 and 25.64 and 27.5 and 26.83 and 26.25 and 25.81 and 25.1 and 25.42 and 26.32 and 26.01 and 24.62
ob/ob mice; 5 mg/kg daily oral gavage, group mean
  liver oil-red-O quantification: 6.7%
ob/ob mice; 5 mg/kg daily oral gavage, individual animal values, 5 mg/kg
  liver oil-red-O quantification: 0.67% and 2.91% and 8.82% and 9.22% and 4.41% and 6.15% and 8.06% and 8.93% and 8.85% and 9.33%
ob/ob mice; 10 mg/kg daily oral gavage, group mean
  liver oil-red-O quantification: 13.23%
ob/ob mice; 10 mg/kg daily oral gavage, individual animal values, 10 mg/kg
  liver oil-red-O quantification: 19.18% and 18.46% and 13.25% and 3.65% and 8.46% and 8.67% and 16.07% and 17.12% and 16.00% and 11.43%
ob/ob mice; 20 mg/kg daily oral gavage, group mean
  liver oil-red-O quantification: 8.5%
ob/ob mice; 20 mg/kg daily oral gavage, individual animal values, 20 mg/kg
  liver oil-red-O quantification: 13.45% and 0.42% and 15.53% and 9.89% and 4.95% and 8.17% and 4.74% and 7.06% and 15.71% and 5.38%
